One assay concerns HeLa cells. As to the kind of experiment: Proliferation assay (crystal violet). The note with it: Homo sapiens, 96 h, 4 days incubation, read-out: Inhibition of proliferation HeLa IC50. Type of assay: cell-based. On the procedure:
Cultivated tumor cells (cells were ordered from ATCC, except HeLa-MaTu and HeLa-MaTu-ADR, which were ordered from EPO-GmbH, Berlin) were plated at a density of 1000 to 5000 cells/well, depending on the growth rate of the respective cell line, in a 96-well multititer plate in 200 μL of their respective growth medium supplemented 10% fetal calf serum. After 24 hours, the cells of one plate (zero-point plate) were stained with crystal violet (see below), while the medium of the other plates was replaced by fresh culture medium (200 μl), to which the test substances were added in various concentrations (0 μM, as well as in the range of 0.001-10 μM; the final concentration of the solvent dimethyl sulfoxide was 0.5%). The cells were incubated for 4 days in the presence of test substances. Cell proliferation was determined by staining the cells with crystal violet: the cells were fixed by adding 20 μl/measuring point of an 11% glutaric aldehyde solution for 15 minutes at room temperature. After three washing cycles of the fixed cells with water, the plates were dried at room temperature. The cells were stained by adding 100 μl/measuring point of a 0.1% crystal violet solution (pH 3.0). After three washing cycles of the stained cells with water, the plates were dried at room temperature. The dye was dissolved by adding 100 μl/measuring point of a 10% acetic acid solution. Absorption was determined by photometry at a wavelength of 595 nm. The change of cell number, in percent, was calculated by normalization of the measured values to the absorption values of the zero-point plate (=0%) and the absorption of the untreated (0 μm) cells (=100%). The IC50 values were determined by means of a 4 parameter fit.

Another assay deals with T1, CDK2/CycE (Homo sapiens, UniProt P24941).
T1 construct: GST; purchased ProQinase GmbH (Freiburg, Germany); host or cells: insect cells (Sf9)
Description: CDK2/CycE kinase assay (TR-FRET). It counts as biochemical. The note with it: 10 μM ATP. From the text:
CDK2/CycE-inhibitory activity of compounds of the present invention was quantified employing the CDK2/CycE TR-FRET assay as described in the following paragraphs.
Recombinant fusion proteins of GST and human CDK2 and of GST and human CycE, expressed in insect cells (Sf9) and purified by Glutathion-Sepharose affinity chromatography, were purchased from ProQinase GmbH (Freiburg, Germany). As substrate for the kinase reaction biotinylated peptide biotin-Ttds-YISPLKSPYKISEG (C-terminus in amid form) was used which can be purchased e.g. form the company JERINI peptide technologies (Berlin, Germany).
For the assay 50 nl of a 100 fold concentrated solution of the test compound in DMSO was pipetted into a black low volume 384 well microtiter plate (Greiner Bio-One, Frickenhausen, Germany), 2 μl of a solution of CDK2/CycE in aqueous assay buffer [50 mM Tris/HCl pH 8.0, 10 mM MgCl2, 1.0 mM dithiothreitol, 0.1 mM sodium ortho-vanadate, 0.01% (v/v) Nonidet-P40 (Sigma)] were added and the mixture was incubated for 15 min at 22° C. to allow pre-binding of the test compounds to the enzyme before the start of the kinase reaction. Then the kinase reaction was started by the addition of 3 μl of a solution of adenosine-tri-phosphate (ATP, 16.7 μM=>final conc. in the 5 μl assay volume is 10 μM) and substrate (1.25 μM=>final conc. in the 5 μl assay volume is 0.75 μM) in assay buffer and the resulting mixture was incubated for a reaction time of 25 min at 22° C. […]
The resulting mixture was incubated 1 h at 22° C. to allow the formation of complex between the phosphorylated biotinylated peptide and the detection reagents. Subsequently the amount of phosphorylated substrate was evaluated by measurement of the resonance energy transfer from the Eu-chelate to the streptavidine-XL. Therefore, the fluorescence emissions at 620 nm and 665 nm after excitation at 350 nm was measured in a TR-FRET reader, e.g. a Rubystar (BMG Labtechnologies, Offenburg, Germany) or a Viewlux (Perkin-Elmer). […]
On the technique in general: TR-FRET usually uses a lanthanide donor and a delayed reading to cut background.

Structures are written as SMILES. pIC50: −log10 of the molar value.

On to `Cc1noc(Nc2cnc(C(F)(F)F)cn2)c1C(=O)Nc1ccc(F)c(F)c1` [Example 1c, N-(3,4-Difluorophenyl)-3-methyl-5-{[5-(trifluoromethyl)pyrazin-2-yl]amino}-1,2-oxazole-4-carboxamide], for which the pIC50 in the assay on HeLa cells is 6.03; against CDK2/CycE, < 4.70.
`Cc1noc(Nc2cnc(C(F)(F)F)cn2)c1C(=O)Nc1ccc(OC2CCN(CCC(F)(F)F)CC2)nc1` [Example 1a, 3-Methyl-5-{[5-(trifluoromethyl)pyrazin-2-yl]amino}-N-(6-{[1-(3,3,3-trifluoropropyl)-piperidin-4-yl]oxy}pyridin-3-yl)-1,2-oxazole-4-carboxamide]: the figures for the pIC50 in the assay with HeLa cells and against CDK2/CycE were 5.72 and < 4.70, respectively.
Taken in the same sequence, the figures for `Cc1noc(Nc2cnc(C(=O)NC3CCN(CC(F)F)CC3)cn2)c1C(=O)Nc1ccc(F)c(F)c1` [Example 1b, N-[1-(2,2-Difluoroethyl)piperidin-4-yl]-5-({4-[(3,4-difluorophenyl)carbamoyl]-3-methyl-1,2-oxazol-5-yl}amino)pyrazine-2-carboxamide] were 5.47 and < 4.70.

Values taken from patent US20170217946A1, “AMINO-SUBSTITUTED ISOXAZOLES” (Bayer Pharma Aktiengesellschaft, priority 2014, published 2017).
